SMILES strings stand for the structures.

Here are results for one compound from patent US12016335B2, “Stabilized low-concentration metsulfuron-methyl liquid composition” (FMC CORPORATION, priority 2013, dated 2024).

The data set is described as follows: Chemical stability of metsulfuron-methyl and thifensulfuron-methyl during aging of compositions at 40° C. (HPLC). It counts as physicochemical. On the procedure: When prepared, the compositions were analyzed by HPLC for metsulfuron-methyl and thifensulfuron-methyl content. The stability of metsulfuron-methyl and thifensulfuron-methyl in the compositions prepared was then determined by aging samples in ovens at 40° C. for 4 and 8 weeks. Storage at 40° C. at 8 weeks simulates two-year storage at ambient temperature. Control samples were stored in a freezer at −6° C. […] At the end of the allotted times, samples were removed from the ovens and analyzed by HPLC for metsulfuron-methyl or thifensulfuron-methyl content. The relative chemical stability was calculated by dividing the assay of the oven-aged sample by that of the control sample analyzed on the same day.

In the case of `COC(=O)c1sccc1S(=O)(=O)NC(=O)Nc1nc(C)nc(OC)n1` [thifensulfuron-methyl, methyl 3-[[[[(4-methoxy-6-methyl-1,3,5-triazin-2-yl)amino]carbonyl]amino]-sulfonyl]-2-thiophenecarboxylate], the “stability of the thifensulfuron-methyl component itself” value was “excellent stability”.
